This series deals with ATP-dependent translocase ABCB1 (Homo sapiens, UniProt P08183). The series can be described thus: TP_TRANSPORTER: increase in bodipy-FL-prazosin intracellular accumulation in MDR1-expressing NIH-3T3 cells. As to conditions: mouse, nih3t3. The class given is functional, cell-based.
Sequence of ATP-dependent translocase ABCB1 (P08183 whole entry): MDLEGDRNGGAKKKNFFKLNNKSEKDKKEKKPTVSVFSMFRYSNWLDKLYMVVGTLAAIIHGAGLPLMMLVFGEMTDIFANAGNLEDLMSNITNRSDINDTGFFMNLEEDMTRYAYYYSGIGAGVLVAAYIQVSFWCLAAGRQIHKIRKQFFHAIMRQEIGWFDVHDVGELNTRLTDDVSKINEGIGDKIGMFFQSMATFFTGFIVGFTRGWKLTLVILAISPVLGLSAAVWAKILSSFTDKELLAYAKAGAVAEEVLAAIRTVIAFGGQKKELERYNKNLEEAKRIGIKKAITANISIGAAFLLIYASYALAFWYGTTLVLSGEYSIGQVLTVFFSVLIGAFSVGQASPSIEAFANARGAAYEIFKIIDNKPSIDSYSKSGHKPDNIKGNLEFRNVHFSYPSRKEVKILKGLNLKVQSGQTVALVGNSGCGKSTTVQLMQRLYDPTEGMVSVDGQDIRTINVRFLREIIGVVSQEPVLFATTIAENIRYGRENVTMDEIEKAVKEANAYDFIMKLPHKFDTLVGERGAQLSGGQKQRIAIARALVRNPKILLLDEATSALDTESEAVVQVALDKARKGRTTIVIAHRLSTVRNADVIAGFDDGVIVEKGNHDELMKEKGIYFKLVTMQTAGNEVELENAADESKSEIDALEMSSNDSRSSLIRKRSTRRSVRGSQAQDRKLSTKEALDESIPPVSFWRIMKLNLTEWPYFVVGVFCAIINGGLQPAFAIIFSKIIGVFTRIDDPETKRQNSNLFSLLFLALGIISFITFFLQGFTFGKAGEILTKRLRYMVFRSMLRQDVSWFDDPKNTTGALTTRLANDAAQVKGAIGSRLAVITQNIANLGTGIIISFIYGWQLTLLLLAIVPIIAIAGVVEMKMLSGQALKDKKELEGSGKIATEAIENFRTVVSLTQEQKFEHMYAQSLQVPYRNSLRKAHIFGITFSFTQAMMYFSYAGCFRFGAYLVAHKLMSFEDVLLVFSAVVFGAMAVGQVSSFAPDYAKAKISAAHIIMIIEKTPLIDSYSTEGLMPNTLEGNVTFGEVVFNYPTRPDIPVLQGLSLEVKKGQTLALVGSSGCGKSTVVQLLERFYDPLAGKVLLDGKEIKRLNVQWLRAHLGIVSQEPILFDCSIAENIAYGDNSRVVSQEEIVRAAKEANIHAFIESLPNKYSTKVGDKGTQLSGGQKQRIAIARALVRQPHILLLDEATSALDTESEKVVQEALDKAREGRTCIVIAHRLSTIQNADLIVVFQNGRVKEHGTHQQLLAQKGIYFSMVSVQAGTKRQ
For the compound `C/C(=C\CCC#C/C=C/C(C)C(O)/C(C)=C/CCc1cccc2ccccc12)C(=O)NCCOCCOCCOCCOCCOCCOCCOCCOCCOCCOCCOCCOCNC(=O)/C(C)=C/CCC#C/C=C/C(C)C(O)/C(C)=C/CCc1ccc2ccccc2c1` (stereo unspecified), the Activity result was “inhibitor [+]”.

Consider `C/C(=C\CCC#C/C=C/C(C)C(O)/C(C)=C/CCc1ccc2ccccc2c1)C(=O)NCCOCCOCCOCCOCCOCCNC(=O)/C(C)=C/CCC#C/C=C/C(C)C(O)/C(C)=C/CCc1cccc2ccccc12` (stereo unspecified), for which the Activity result is “inhibitor [+]”.

Take `C/C(=C\CCC#C/C=C/C(C)C(O)/C(C)=C/CCc1cccc2ccccc12)C(=O)NCCOCCOCCOCCOCCOCCOCCOCCOCNC(=O)/C(C)=C/CCC#C/C=C/C(C)C(O)/C(C)=C/CCc1ccc2ccccc2c1` (stereo unspecified): the Activity result was “inhibitor [+]”.

As for `C/C(=C\CCC#C/C=C/C(C)C(O)/C(C)=C/CCc1cccc2ccccc12)C(=O)NCCOCCOCCOCCOCCOCCO` (stereo unspecified) [STIPIAMIDE MONOMER], the Activity result is “is not an inhibitor [-]”.

As to `C/C(=C\CCC#C/C=C/C(C)C(O)/C(C)=C/CCc1cccc2ccccc12)C(=O)NCCOCCOCNC(=O)/C(C)=C/CCC#C/C=C/C(C)C(O)/C(C)=C/CCc1ccc2ccccc2c1` (stereo unspecified), the Activity entry was “is not an inhibitor [-]”.

Regarding `C/C(=C\CCC#C/C=C/C(C)C(O)/C(C)=C/CCc1ccc2ccccc2c1)C(=O)NCNC(=O)/C(C)=C/CCC#C/C=C/C(C)C(O)/C(C)=C/CCc1cccc2ccccc12` (stereo unspecified), the Activity result was “is not an inhibitor [-]”.

The values above are taken from ChEMBL document CHEMBL2073912, “Biochemical basis of polyvalency as a strategy for enhancing the efficacy of P-glycoprotein (ABCB1) modulators: stipiamide homodimers separated with defined-length spacers reverse drug efflux with greater efficacy” (Biochemistry, 2004).
